Columns and labels:
[1] = tested on: mouse peritoneal macrophages; settings: very low doses; reference 22; cited from earlier work
ER calcium stores = test: Assay of ER calcium pools (Fura-2, thapsigargin release); format: cell-based, mouse; settings: 70 nM, acetyl-LDL + 58035, 2.5 h (FIG. 18B)
Experimental: Shown are representative tracings of the 340/380-nm Fura-2 fluorescence ratio in an individual macrophage from each treatment group before and after addition of 1 μM thapsigargin.
Untreated or cholesterol-loaded macrophages on 25-mm coverslip-containing microscopy dishes were loaded with 4 μM Fura-2 μM (Molecular Probes) and 0.08% Pluronic F-127 in Hank's buffered saline solution (HBSS) at room temperature for 30 min. The monolayers were then washed twice with HBSS, incubated with HBSS for an additional 30 min and mounted on the stage of an inverted Nikon diaphot microscope equipped with a 40× objective. Sulfinpyrazone (250 μM) was included in all solutions to prevent excretion of the Fura-2 by the macrophages. Fluorescence images (510-nm emission following alternate 340-nm and 380-nm excitation) were collected through a charge-coupled device camera (Photon Technology International), and the 340:380 ratio of individual cells in these images was calculated.
Cells exposed to U18666A alone or culture media with no additives served as further control groups. […] Thapsigargin treatment results in emptying of ER calcium stores into the cytosol, which was quantified by fluorescence microscopy, providing a measure of releasable ER calcium stores at the time of thapsigargin addition.

[2] = tested on: mouse peritoneal macrophages; test: Annexin V / propidium iodide cell death assay of macrophages
Description: Representative fluorescence images and quantitative cell death data from five fields of cells for each condition are shown, expressed as the percent of total cells that stained with annexin V or propidium iodide (mean±S.E.M.; n=5 fields of cells, where each field had ˜200 cells).
Representative fluorescence images and quantitative data are shown (mean±S.E.M.; n=5 fields of cells, where each field had ˜200 cells).
Representative fluorescence images are shown in FIG. 19A, and quantitative apoptosis data from five fields of cells for each condition are shown in FIG. 19B, expressed as the percent of total cells that stained with annexin V or propidium iodide (mean±S.E.M.; n=5 fields of cells, where each field had ˜200 cells).
Peritoneal macrophages from adult female C57BL/6 mice and all mutant mice used in this study were harvested three days after the intraperitoneal injection of 40/g of concanavalin A in 0.5 ml of PBS. The cells were incubated in Dulbecco's modified Eagle's medium (DMEM) supplemented with 10% fetal bovine serum (FBS) and 20% L-cell conditioned medium. The medium was replaced every 24 hours until the macrophages were confluent. On the day of the experiment, the cells were washed three times with warm PBS and incubated as indicated in the Description of Figures for FIGS. 15A-20E. Most importantly, FC-loading of wild type and mutant macrophages was effected by incubating the cells with 100 μg/ml acetyl-LDL in the presence of 10 μg/ml 58035, which inhibits ACAT-mediated cholesterol esterification (11). At the end of the incubation period, the macrophages were assayed for early-mid-stage apoptosis (i.e., phosphatidylserine externalization) by staining with Alexa-488-labeled annexin V and for late-stage apoptosis (i.e., increased membrane permeability) by staining with propidium iodide (PI), as previously described (11). Cells were immediately viewed with an Olympus IX-70 inverted fluorescence microscope, and 3-6 representative fields (˜1000 cells) for each condition were counted for the number of annexin-positive, PI-positive, and total cells.

[3] = tested on: unfolded protein response (UPR); test: Immunoblot analysis of UPR markers (CHOP, PERK, IRE1α, XBP-1) in macrophages
Experimental: For detection of PERK, nuclei-free cell extracts were immunoprecipitated with anti-PERK antiserum and then immunoblotted, while for detection of ATF-4 and CHOP, immunoblots were performed on nuclear extracts. Lamin B, a nuclear protein, was used as the loading control.
Immunoprecipitation and immunoblot detection for IRE1α and PERK were conducted as described by Harding et al. (35). Immunoblot analyses of XBP-1, ATF4, and CHOP were carried out as described previously (36,38) with minor modifications. Briefly, cells were lysed in RIPA buffer to prepare whole-cell lysates or to prepare nuclei by centrifugation. The whole-cell lysates or nuclei were resuspended in 2×SDS-PAGE loading buffer and incubated at 95° C. for 10 min. Whole cell (100 μg) or nuclear lysates (20 μg) were electrophoresed on 4-20% gradient SDS-PAGE gels and electrotransferred to 0.22-μm nitrocellulose membrane using a Bio-Rad mini-transfer tank. After incubation with primary antibodies, the protein bands were detected with HRP-conjugated secondary antibodies (Bio-Rad) and ECL (Amersham Pharmacia Biotech). The membranes were reprobed with an anti-β-actin monoclonal antibody or an anti-lamin B serum to control for differences in loading.

ACAT enzyme = settings: reference 24; cited from earlier work
[4] = tested on: unfolded protein response (UPR); settings: very low doses; reference 22; cited from earlier work
[5] = tested on: ABCA1-independent efflux to HDL2; test: 3H-cholesterol efflux to HDL2 from free cholesterol-loaded macrophages; format: cell-based, mouse; settings: 70 nM, FC-loaded macrophages (FIG. 12B)
Experimental: Acetyl-LDL (800 μg) was incubated with 10 μCi ^3H-cholesterol for 30 min at 37° C., followed by addition of 8 ml of DMEM, 0.2% BSA. The macrophages were incubated with this medium for 5 h, washed 3 times with PBS, and then incubated with DMEM, 0.2% BSA for 15 min at 37° C. After washing with PBS, the macrophages were incubated with DMEM, 0.2% BSA, containing either 15 μg/ml apoAI or 20 μg/ml HDL2. At the indicated time points, 100 μl of media was removed and centrifuged for 5 min at 14,000 rpm to pellet cellular debris. The radioactivity in this fraction of media was quantitated by liquid scintillation counting. After the last time point, the remainder of the media was removed, and the cells were dissolved in 0.5 ml of 0.1 N NaOH containing 0.5% sodium dodecylsulfate (5 h at room temperature). A 100 μl-aliquot of the cell lysate was counted, and the percent efflux was calculated as (media cpm)[…](cell +media cpm)×100. Total protein in the cell lysate was determined using the Bio-Rad DC protein assay kit. Note that there was no statistical difference in cellular cpm or protein between cholesteryl ester- and free cholesterol-loaded macrophages.

Compound: CCN(CC)CCO[C@H]1CC[C@@]2(C)C(=CC[C@@H]3[C@@H]2CC[C@]2(C)C(=O)CC[C@@H]32)C1 [U18666A, 3-β-[2-(diethylamino)ethoxy]androst-5-en-17-one]
- block of apoptosis in FC-loaded cultured macrophages [1]: almost completely
- FC-loading-induced depletion of ER calcium stores (smaller thapsigargin-induced rise) (ER calcium stores): completely prevented
- staurosporine-induced macrophage apoptosis ([2]; data not shown): failed to protect
- FC-induced death of Perk−/− macrophages ([2]; low dose (70 nM), 10 h (FIGS. 19A, 19B)): markedly protected
- FC-induced macrophage death ([2]; low dose (70 nM), acetyl-LDL + 58035, 8 h (FIG. 15C)): protected macrophages from the lethal effect of cholesterol loading
- IRE1α activation and XBP-1 expression in FC-loaded macrophages ([3]; low dose (70 nM) (FIG. 16D, lane 5)): markedly attenuated both events
- CHOP induction in FC-loaded macrophages ([3]; low dose (70 nM), 5 h (FIG. 16A, lane 5)): attenuated CHOP induction
- PERK activation in FC-loaded macrophages ([3]; low dose (70 nM), 5 h (FIG. 16B, lane 5)): blocked PERK activation
- direct inhibitory effect on the ACAT enzyme (ACAT enzyme): no direct inhibitory effect
- block of UPR activation in FC-loaded cultured macrophages [4]: almost completely
- ABCA1-independent efflux (to HDL2) [5]: improved

Reference: US20040259853A1, “Methods for preventing acute clinical vascular events in a subject” (The Trustees of Columbia University, priority 2000, published 2004)
